Test results reported in ChEMBL document CHEMBL5518240 (J Med Chem, 2024).
Each block holds one molecule with its values, some of them ahead of it. Calls of active or inactive are those of the source. The calls are words filed in the database; no cut-off is given here.

How the values were obtained:
[1] = biological target: Bromodomain-containing protein 4 (Homo sapiens, UniProt O60885); assay: Binding affinity to BRD4 (unknown origin) by SPR assay
[2] = tested on: VCaP; assay: Antiproliferative activity against AR positive human VCaP cells assessed inhibition of cell growth measured after 4 days by CellTiter-Glo Luminescent cell viability assay; assay type: functional, cell-based; details: 96 h
[3] = tested on: CWR22R; assay: Antiproliferative activity against AR positive human 22Rv1 cells assessed inhibition of cell growth measured after 4 days by CellTiter-Glo Luminescent cell viability assay; assay type: functional, cell-based; details: 22Rv1, 96 h
[4] = tested on: LNCaP; assay: Antiproliferative activity against AR positive human LNCaP cells assessed inhibition of cell growth measured after 4 days by CellTiter-Glo Luminescent cell viability assay; assay type: functional, cell-based; details: 96 h
[5] = tested on: VCaP; assay: Reduction in KLK3 gene expression in AR positive human VCaP cells assessed as reduction in mRNA level at 1000 nM measured after 6 hrs by qRT-PCT analysis; assay type: functional, cell-based
[6] = tested on: VCaP; assay: Reduction in AR gene expression in AR positive human VCaP cells assessed as reduction in mRNA level at 1000 nM measured after 6 hrs by qRT-PCT analysis; assay type: functional, cell-based
[7] = tested on: VCaP; assay: Reduction in c-Myc gene expression in AR positive human VCaP cells assessed as reduction in mRNA level at 1000 nM measured after 6 hrs by qRT-PCT analysis; assay type: functional, cell-based
[8] = tested on: LNCaP; assay: Reduction in KLK3 gene expression in AR positive human LNCaP cells assessed as reduction in mRNA level at 1000 nM measured after 6 hrs by qRT-PCT analysis; assay type: functional, cell-based
[9] = tested on: LNCaP; assay: Reduction in AR gene expression in AR positive human LNCaP cells assessed as reduction in mRNA level at 1000 nM measured after 6 hrs by qRT-PCT analysis; assay type: functional, cell-based
[10] = tested on: LNCaP; assay: Reduction in c-Myc gene expression in AR positive human LNCaP cells assessed as reduction in mRNA level at 1000 nM measured after 6 hrs by qRT-PCT analysis; assay type: functional, cell-based
[11] = tested on: CWR22R; assay: Reduction in KLK3 gene expression in AR positive human 22Rv1 cells assessed as reduction in mRNA level at 1000 nM measured after 6 hrs by qRT-PCT analysis; assay type: functional, cell-based
[12] = tested on: CWR22R; assay: Reduction in AR gene expression in AR positive human 22Rv1 cells assessed as reduction in mRNA level at 1000 nM measured after 6 hrs by qRT-PCT analysis; assay type: functional, cell-based
[13] = tested on: CWR22R; assay: Reduction in c-Myc gene expression in AR positive human 22Rv1 cells assessed as reduction in mRNA level at 1000 nM measured after 6 hrs by qRT-PCT analysis; assay type: functional, cell-based
[14] = tested on: VCaP; assay: Antitumor activity against human VCaP cells xenografted in CB17 SCID mouse model assessed as tumor growth inhibition at 20 mg/kg, po qd scheduled 5 days in a week measured on day 63; assay type: functional; details: 1512 h, time 63 day, read-out: TGI
[15] = tested on: VCaP; assay: Reduction in AR gene expression in AR positive human VCaP cells assessed as reduction in mRNA level at 100 nM measured after 6 hrs by qRT-PCT analysis relative to control; assay type: functional, cell-based
[16] = tested on: VCaP; assay: Reduction in c-Myc gene expression in AR positive human VCaP cells assessed as reduction in mRNA level at 100 nM measured after 6 hrs by qRT-PCT analysis relative to control; assay type: functional, cell-based
[17] = tested on: LNCaP; assay: Reduction in c-Myc gene expression in AR positive human LNCaP cells assessed as reduction in mRNA level at 100 nM measured after 6 hrs by qRT-PCT analysis relative to control; assay type: functional, cell-based
[18] = tested on: LNCaP; assay: Reduction in AR gene expression in AR positive human LNCaP cells assessed as reduction in mRNA level at 100 nM measured after 6 hrs by qRT-PCT analysis relative to control; assay type: functional, cell-based
[19] = tested on: CWR22R; assay: Reduction in c-Myc gene expression in AR positive human 22Rv1 cells assessed as reduction in mRNA level at 100 nM measured after 6 hrs by qRT-PCT analysis relative to control; assay type: functional, cell-based
[20] = tested on: CWR22R; assay: Reduction in AR gene expression in AR positive human 22Rv1 cells assessed as reduction in mRNA level at 100 nM measured after 6 hrs by qRT-PCT analysis relative to control; assay type: functional, cell-based
[21] = tested on: VCaP; assay: Antitumor activity against human VCaP cells xenografted in CB17 SCID mouse model assessed as tumor growth inhibition at 30 mg/kg, po qd scheduled 5 days in a week measured on day 63; assay type: functional; details: 1512 h, time 63 day, read-out: TGI

SMILES: CO[C@H]1CC[C@H](n2c([C@@H]3CCCC(=O)N3c3ccc(F)c(F)c3)nc3cc(-c4c(C)noc4C)ccc32)CC1 [INOBRODIB]
Kd [1]: 222 nM
IC50 [2]: 53.6 nM
IC50 [3]: 184 nM
IC50 [4]: 412 nM
Activity [5]: Active
Activity [6]: Active
Activity [7]: Active
Activity [8]: Active
Activity [9]: Active
Activity [10]: Active
Activity [11]: Active
Activity [12]: Active
Activity [13]: Active
inhibition in vivo at 20 mg/kg [14]: 42%

IC50 [2]: 219 nM
IC50 [4]: 124 nM
SMILES: N#Cc1ccc(O[C@H]2CC[C@H](NC(=O)c3ccc(N4CCC(CN5CCN(c6cc7c(cc6F)C(=O)N(C6CCC(=O)NC6=O)C7=O)CC5)CC4)nn3)CC2)cc1Cl (stereo partly specified) [BAVDEGALUTAMIDE]
Activity [15]: Active
IC50 [3]: 316 nM
Activity [16]: Active
Activity [17]: inactive
Activity [18]: inactive
Activity [19]: inactive
Activity [20]: inactive

IC50 [2]: 216 nM
IC50 [4]: 7000 nM
SMILES: CC(=O)N1CCc2c(c(N3CCCc4cc(-c5cnn(C)c5)c(C(F)F)cc43)nn2C2CCOCC2)C1
IC50 [3]: > 1000 nM
Activity [5]: Active
Activity [6]: Active
Activity [7]: Active
Activity [8]: Active
Activity [9]: Active
Activity [10]: Active
Activity [11]: Active
Activity [12]: Active
Activity [13]: Active
inhibition in vivo at 30 mg/kg [21]: 46%
